Test results taken from US11781118B2, “Preparation of L-amino acid deaminase mutant and application thereof” (Jiangnan University, priority 2020, dated 2023).

What was measured:
[1] = target: Proteus mirabilis L-amino acid deaminase (PmirLAAD), wild-type parent, SEQ ID NO: 1 (Proteus mirabilis, UniProt Q51890); assay: Product inhibition constant determination, parent enzyme PmirLAAD WT; format: biochemical; conditions: relative to WT
Procedure: (§1) In order to evaluate the mutants, kinetic parameters of the mutant parent PmirLAAD^WT and the mutants PmirLAAD^M1, PmirLAAD^M2, PmirLAAD^M3 and PmirLAAD^M4 at 25° C. were determined in the disclosure.
(§2) kcat/Km was calculated based on the initial rate of α-ketoisovaleric acid produced from hydrolyzed L-valine substrates with different concentrations determined at 25° C. Product inhibition of the parent enzyme and the mutants was determined by a product inhibition constant determination experiment in the transformation process. A PmirLAAD^WT parent enzyme strain and mutant strains were respectively added to a reaction solution with the final concentration of wet cells of 10 g/L. 60 mM L-valine was used as the substrate, 10-100 mM α-ketoisovaleric acid was added to the transformation system, the initial reaction rate V0 was determined after about 30 min of reaction, the maximum reaction rate Vmax was determined after about 2 h of reaction, and the product inhibition constant KPI was calculated according to the following formula: […]
(§3) V0: initial reaction rate, Vmax: maximum reaction rate, Km: Michaelis constant, [S]: substrate concentration, [P]: product concentration, KPI: product inhibition constant.

[2] = tested on: Proteus mirabilis L-amino acid deaminase (PmirLAAD) mutant M3, S98A/T105A/S106A, SEQ ID NO: 13; assay: Product inhibition constant determination, mutant M3; format: biochemical; conditions: M3 relative to WT
Procedure: as §1, §2, §3

[3] = tested on: Proteus mirabilis L-amino acid deaminase (PmirLAAD) mutant M1, S98A, SEQ ID NO: 3; assay: Product inhibition constant determination, mutant M1; format: biochemical; conditions: M1 relative to WT
Procedure: as §1, §2, §3

[4] = tested on: Proteus mirabilis L-amino acid deaminase (PmirLAAD) mutant M4, S98A/T105A/S106A/L341A, SEQ ID NO: 15; assay: Product inhibition constant determination, mutant M4; format: biochemical
Procedure: as §1, §2, §3

[5] = target: Proteus mirabilis L-amino acid deaminase (PmirLAAD) mutant M2, S98A/T105A, SEQ ID NO: 11 (Proteus mirabilis, UniProt Q51890, S98A/T105A); assay: Product inhibition constant determination, mutant M2; format: biochemical; conditions: M2 relative to WT
Procedure: as §1, §2, §3

CC(C)[C@H](N)C(=O)O = assay: Kinetic parameters with L-valine as substrate, parent enzyme PmirLAAD WT; format: biochemical, Proteus mirabilis; conditions: other: L-valine substrate, 25° C., initial rate of α-ketoisovaleric acid
Procedure: as §1, §2

[6] = target: Proteus mirabilis L-amino acid deaminase (PmirLAAD) mutant M4, S98A/T105A/S106A/L341A, SEQ ID NO: 15 (Proteus mirabilis, UniProt Q51890, L341A/S106A/S98A/T105A); assay: Kinetic parameters with L-valine as substrate, mutant M4; format: biochemical; conditions: M4 compared with parent enzyme, "increased by", 25° C.
Procedure: as §1, §2

[7] = Shake flask screening of mutants: whole-cell transformation of L-valine, α-ketoisovaleric acid determined by HPLC; format: cell-based, E. coli BL21; conditions: transformation temperature 25° C., pH 8.0, 24 h
Procedure: Preparation of sample for determining α-ketoisovaleric acid content by HPLC: 1 mL of a transformed transformation solution is centrifuged at 12000 rpm for 5 min, the supernatant is diluted and filtered through a 0.45 μm filtration membrane, and the filtrate is for liquid chromatography.
Determination of α-ketoisovaleric acid content by HPLC: a waters high performance liquid chromatograph (equipped with a UV-visible detector) and a Bio-Rad Aminex HPX-87H (300×7.8 mm, 9 μm) chromatographic column are used, and the mobile phase is dilute sulfuric acid with the concentration of 2.5 mmol/L. The mobile phase is filtered through a 0.22 μm filtration membrane; the filtrate is subjected to ultrasonic degassing; and detection is performed at the flow rate of 0.6 mL/min, the column temperature of 35° C. and the ultraviolet detection wavelength of 210 nm.
(2) Shake flask screening of single mutants: The obtained 4 mutant strains and a strain containing wild-type L-amino acid deaminase were respectively inoculated into an LB seed medium, and cultured at 200 rpm at 37° C. for about 10 h. The products were respectively inoculated into a shake flask fermentation medium with the inoculum size of 5% of the medium by volume, and cultured at 200 rpm at 37° C. until OD600 was about 0.8. IPTG with the final concentration of 0.04 mmol/L was added for induction, and the induction was performed at 200 rpm at 25° C. for 14 h. The product was centrifuged at 6000 rpm for 8 min to collect bacterial cells. The bacterial cells collected by centrifugation were used for later transformation experiments.
Transformation conditions: transformation temperature 25° C., reaction pH 8.0, and transformation time 24 h.
The yield of α-ketoisovaleric acid of the transformation solution after the completion of the transformation was determined by HPLC. Finally, S98A produced α-ketoisovaleric acid at the highest yield.

Sequence of Proteus mirabilis L-amino acid deaminase (PmirLAAD) mutant M2, S98A/T105A, SEQ ID NO: 11 (Q51890 whole entry S98A/T105A): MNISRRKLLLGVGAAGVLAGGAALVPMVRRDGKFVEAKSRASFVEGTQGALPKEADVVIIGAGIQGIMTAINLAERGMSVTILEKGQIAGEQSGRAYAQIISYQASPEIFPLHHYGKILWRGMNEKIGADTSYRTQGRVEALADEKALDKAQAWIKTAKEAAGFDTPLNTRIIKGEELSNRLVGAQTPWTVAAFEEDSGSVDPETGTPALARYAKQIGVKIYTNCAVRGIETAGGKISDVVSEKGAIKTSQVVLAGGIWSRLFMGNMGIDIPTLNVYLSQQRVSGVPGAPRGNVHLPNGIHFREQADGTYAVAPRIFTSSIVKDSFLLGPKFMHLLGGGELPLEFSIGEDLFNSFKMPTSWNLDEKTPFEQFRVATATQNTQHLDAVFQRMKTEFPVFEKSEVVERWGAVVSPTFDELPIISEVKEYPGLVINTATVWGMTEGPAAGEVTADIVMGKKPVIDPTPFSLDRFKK
Sequence of Proteus mirabilis L-amino acid deaminase (PmirLAAD), wild-type parent, SEQ ID NO: 1 (Q51890 entry or part of it): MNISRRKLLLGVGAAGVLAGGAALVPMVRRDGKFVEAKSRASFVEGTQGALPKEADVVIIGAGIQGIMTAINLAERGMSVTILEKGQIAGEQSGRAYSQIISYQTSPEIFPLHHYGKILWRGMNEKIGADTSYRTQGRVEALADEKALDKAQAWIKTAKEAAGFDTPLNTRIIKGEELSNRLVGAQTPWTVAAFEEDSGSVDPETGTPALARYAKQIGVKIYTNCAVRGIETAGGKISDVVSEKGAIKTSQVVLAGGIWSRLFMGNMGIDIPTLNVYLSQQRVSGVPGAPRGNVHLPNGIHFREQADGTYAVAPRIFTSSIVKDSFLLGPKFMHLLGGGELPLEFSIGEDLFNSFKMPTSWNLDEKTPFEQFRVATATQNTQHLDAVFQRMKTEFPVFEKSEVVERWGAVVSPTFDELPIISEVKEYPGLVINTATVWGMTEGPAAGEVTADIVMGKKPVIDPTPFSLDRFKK
Sequence of Proteus mirabilis L-amino acid deaminase (PmirLAAD) mutant M4, S98A/T105A/S106A/L341A, SEQ ID NO: 15 (Proteus mirabilis, UniProt Q51890, L341A/S106A/S98A/T105A) (Q51890 whole entry S98A/T105A/S106A/L341A): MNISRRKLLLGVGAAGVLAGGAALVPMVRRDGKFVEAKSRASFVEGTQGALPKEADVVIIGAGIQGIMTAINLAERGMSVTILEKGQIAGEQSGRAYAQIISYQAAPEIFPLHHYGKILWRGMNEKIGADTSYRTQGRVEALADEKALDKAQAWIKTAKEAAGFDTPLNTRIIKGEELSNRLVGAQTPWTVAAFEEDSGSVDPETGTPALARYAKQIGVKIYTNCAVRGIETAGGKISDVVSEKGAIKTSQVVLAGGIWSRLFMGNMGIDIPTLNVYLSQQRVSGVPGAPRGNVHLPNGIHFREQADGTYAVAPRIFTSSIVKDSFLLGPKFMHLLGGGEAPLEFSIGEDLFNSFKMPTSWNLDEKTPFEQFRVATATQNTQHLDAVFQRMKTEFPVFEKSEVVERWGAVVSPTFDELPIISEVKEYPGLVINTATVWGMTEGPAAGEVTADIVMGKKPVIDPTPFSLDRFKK

CC(C)C(=O)C(=O)O [α-ketoisovaleric acid]
Times of change (KPI) [1]: 1
Times of change (KPI) [2]: 4.6
Times of change (KPI) [3]: 2.6
increase of product inhibition constant ([4]; M4 compared with parent enzyme, "increased by"): 5.7 times
Times of change (KPI) ([4]; M4 relative to WT): 6.7
Times of change (KPI) [5]: 3.9

Proteus mirabilis L-amino acid deaminase (PmirLAAD), wild-type parent, SEQ ID NO: 1 (Proteus mirabilis)
kcat/Km (CC(C)[C@H](N)C(=O)O): 4.33 M⁻¹ s⁻¹

CC(C)[C@H](N)C(=O)O [L-valine]
increase of kcat/Km (catalytic efficiency) [6]: 5.2 times

B1: PmirLAAD^S98A/T105A/S106A (protein)
chain: MNISRRKLLLGVGAAGVLAGGAALVPMVRRDGKFVEAKSRASFVEGTQGALPKEADVVIIGAGIQGIMTAINLAERGMSVTILEKGQIAGEQSGRAYAQIISYQAAPEIFPLHHYGKILWRGMNEKIGADTSYRTQGRVEALADEKALDKAQAWIKTAKEAAGFDTPLNTRIIKGEELSNRLVGAQTPWTVAAFEEDSGSVDPETGTPALARYAKQIGVKIYTNCAVRGIETAGGKISDVVSEKGAIKTSQVVLAGGIWSRLFMGNMGIDIPTLNVYLSQQRVSGVPGAPRGNVHLPNGIHFREQADGTYAVAPRIFTSSIVKDSFLLGPKFMHLLGGGELPLEFSIGEDLFNSFKMPTSWNLDEKTPFEQFRVATATQNTQHLDAVFQRMKTEFPVFEKSEVVERWGAVVSPTFDELPIISEVKEYPGLVINTATVWGMTEGPAAGEVTADIVMGKKPVIDPTPFSLDRFKK
α-ketoisovaleric acid [7]: 60.6 g/L

B2: PmirLAAD^T105A/S106A/L341A (protein)
chain: MNISRRKLLLGVGAAGVLAGGAALVPMVRRDGKFVEAKSRASFVEGTQGALPKEADVVIIGAGIQGIMTAINLAERGMSVTILEKGQIAGEQSGRAYSQIISYQAAPEIFPLHHYGKILWRGMNEKIGADTSYRTQGRVEALADEKALDKAQAWIKTAKEAAGFDTPLNTRIIKGEELSNRLVGAQTPWTVAAFEEDSGSVDPETGTPALARYAKQIGVKIYTNCAVRGIETAGGKISDVVSEKGAIKTSQVVLAGGIWSRLFMGNMGIDIPTLNVYLSQQRVSGVPGAPRGNVHLPNGIHFREQADGTYAVAPRIFTSSIVKDSFLLGPKFMHLLGGGEAPLEFSIGEDLFNSFKMPTSWNLDEKTPFEQFRVATATQNTQHLDAVFQRMKTEFPVFEKSEVVERWGAVVSPTFDELPIISEVKEYPGLVINTATVWGMTEGPAAGEVTADIVMGKKPVIDPTPFSLDRFKK
α-ketoisovaleric acid [7]: 59.6 g/L

B3: PmirLAAD^S98A/S106A/L341A (protein)
chain: MNISRRKLLLGVGAAGVLAGGAALVPMVRRDGKFVEAKSRASFVEGTQGALPKEADVVIIGAGIQGIMTAINLAERGMSVTILEKGQIAGEQSGRAYAQIISYQTAPEIFPLHHYGKILWRGMNEKIGADTSYRTQGRVEALADEKALDKAQAWIKTAKEAAGFDTPLNTRIIKGEELSNRLVGAQTPWTVAAFEEDSGSVDPETGTPALARYAKQIGVKIYTNCAVRGIETAGGKISDVVSEKGAIKTSQVVLAGGIWSRLFMGNMGIDIPTLNVYLSQQRVSGVPGAPRGNVHLPNGIHFREQADGTYAVAPRIFTSSIVKDSFLLGPKFMHLLGGGEAPLEFSIGEDLFNSFKMPTSWNLDEKTPFEQFRVATATQNTQHLDAVFQRMKTEFPVFEKSEVVERWGAVVSPTFDELPIISEVKEYPGLVINTATVWGMTEGPAAGEVTADIVMGKKPVIDPTPFSLDRFKK
α-ketoisovaleric acid [7]: 53.5 g/L

B4: PmirLAAD^S98A/T105A/L341A (protein)
chain: MNISRRKLLLGVGAAGVLAGGAALVPMVRRDGKFVEAKSRASFVEGTQGALPKEADVVIIGAGIQGIMTAINLAERGMSVTILEKGQIAGEQSGRAYAQIISYQASPEIFPLHHYGKILWRGMNEKIGADTSYRTQGRVEALADEKALDKAQAWIKTAKEAAGFDTPLNTRIIKGEELSNRLVGAQTPWTVAAFEEDSGSVDPETGTPALARYAKQIGVKIYTNCAVRGIETAGGKISDVVSEKGAIKTSQVVLAGGIWSRLFMGNMGIDIPTLNVYLSQQRVSGVPGAPRGNVHLPNGIHFREQADGTYAVAPRIFTSSIVKDSFLLGPKFMHLLGGGEAPLEFSIGEDLFNSFKMPTSWNLDEKTPFEQFRVATATQNTQHLDAVFQRMKTEFPVFEKSEVVERWGAVVSPTFDELPIISEVKEYPGLVINTATVWGMTEGPAAGEVTADIVMGKKPVIDPTPFSLDRFKK
α-ketoisovaleric acid [7]: 56.1 g/L
